Data as given in ChEMBL document CHEMBL1201862, “PubChem BioAssay data set” (2004).
Where a name gives a salt, the structure may show the parent alone.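 Grown in 96-well plates, cells were treated for 48 hours with each compound at five concentrations. Insufficient inhibition: endpoint recorded as highest concentration tested. GI50 is the concentration that inhibits growth by half.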 Activity calls are given as the source filed them. Rule as the data show it: active = GI50 up to about 1.1 µM and inactive = higher. Non-standard residues stand in square brackets, D forms with d. Residues, ends and D or L forms follow the SMILES beside them. *: point of attachment. Bn2Val = CC(C)[C@@H](C(=O)*)N(Cc1ccccc1)Cc1ccccc1; NH(4-Cl-benzyl) = Clc1ccc(CN*)cc1; NMeV = CN[C@H](C(=O)O)C(C)C; dNMeA = CN[C@H](C)C(=O)O

Assays:
Test in all cases: growth of human tumour cells (NCI), 48 h
786-0 = tested on: 786-0
ACHN = tested on: ACHN
CCRF-CEM = tested on: CCRF-CEM
COLO 205 = tested on: COLO 205
HL-60 = tested on: HL-60
LOX IMVI = tested on: LOX IMVI
Malme-3M = tested on: Malme-3M
NCI-H226 = tested on: NCI-H226
NCI/ADR-RES = tested on: NCI/ADR-RES
OVCAR-4 = tested on: OVCAR-4
OVCAR-5 = tested on: OVCAR-5
OVCAR-8 = tested on: OVCAR-8
RXF 393 = tested on: RXF 393
SF-268 = tested on: SF-268
SF-539 = tested on: SF-539
SK-MEL-2 = tested on: SK-MEL-2
SK-OV-3 = tested on: SK-OV-3
SR = tested on: SR
UACC-257 = tested on: UACC-257
UACC-62 = tested on: UACC-62

Measured: GI50

Oc1ccc(Cl)cc1Cc1cc(Cl)cc(Cc2cc(Cl)ccc2O)c1O
inactive: 786-0 2.81 µM | ACHN 2.29 µM | CCRF-CEM 1.47 µM | COLO 205 1.76 µM | HL-60 2.3 µM | LOX IMVI 2.9 µM | Malme-3M 1.95 µM | NCI-H226 2.74 µM | NCI/ADR-RES 2.04 µM | OVCAR-4 2.83 µM | OVCAR-5 3.17 µM | OVCAR-8 3.43 µM | RXF 393 1.84 µM | SF-268 2.69 µM | SF-539 1.64 µM | SK-MEL-2 2.61 µM | SK-OV-3 2.43 µM | SR 2.82 µM | UACC-257 2.01 µM | UACC-62 2.15 µM

O=[N+]([O-])c1ccc(CSc2c3ccccc3nc3ccccc23)cc1
inactive: 786-0 1.93 µM | ACHN 3.37 µM | CCRF-CEM 2.69 µM | COLO 205 3.13 µM | HL-60 2.52 µM | LOX IMVI 2.93 µM | Malme-3M 2.34 µM | NCI-H226 16.7 µM | NCI/ADR-RES 18 µM | OVCAR-4 15.6 µM | OVCAR-5 15.3 µM | OVCAR-8 3.33 µM | RXF 393 5.47 µM | SF-268 7.64 µM | SF-539 2.47 µM | SK-MEL-2 16.9 µM | SK-OV-3 22 µM | SR 3.13 µM | UACC-257 3.33 µM | UACC-62 14.4 µM

C=C(Br)CNCC(=C)Br
inactive: 786-0 > 100 µM | ACHN > 100 µM | CCRF-CEM 76.2 µM | COLO 205 52 µM | HL-60 26.7 µM | LOX IMVI > 100 µM | Malme-3M 93.1 µM | NCI-H226 > 100 µM | NCI/ADR-RES > 100 µM | OVCAR-4 > 100 µM | OVCAR-5 > 100 µM | OVCAR-8 > 100 µM | RXF 393 > 100 µM | SF-268 > 100 µM | SF-539 > 100 µM | SK-MEL-2 > 100 µM | SK-OV-3 > 100 µM | SR > 100 µM | UACC-257 29 µM | UACC-62 > 100 µM

C[C@H]1[C@H](C)N1CC(O)Cn1ccnc1[N+](=O)[O-] (stereo not given in full)
inactive: 786-0 > 100 µM | ACHN > 100 µM | CCRF-CEM > 91.6 µM | COLO 205 > 100 µM | HL-60 > 100 µM | LOX IMVI > 100 µM | Malme-3M > 100 µM | NCI-H226 > 100 µM | NCI/ADR-RES > 100 µM | OVCAR-4 > 100 µM | OVCAR-5 > 100 µM | OVCAR-8 > 100 µM | RXF 393 > 100 µM | SF-268 > 100 µM | SF-539 > 100 µM | SK-MEL-2 > 100 µM | SK-OV-3 > 100 µM | SR > 100 µM | UACC-257 > 100 µM | UACC-62 > 100 µM

CC(C)OP(=O)(OC(C)C)/C(C#N)=C/c1c[nH]c2ccccc12
inactive: 786-0 > 100 µM | ACHN 86.3 µM | CCRF-CEM 35.6 µM | COLO 205 88.9 µM | HL-60 19.1 µM | LOX IMVI > 100 µM | Malme-3M 86.3 µM | NCI-H226 94 µM | NCI/ADR-RES 21.7 µM | OVCAR-4 86.5 µM | OVCAR-5 > 100 µM | OVCAR-8 54.6 µM | RXF 393 > 100 µM | SF-268 > 100 µM | SF-539 > 100 µM | SK-MEL-2 > 100 µM | SK-OV-3 92 µM | SR 68.1 µM | UACC-257 54.3 µM | UACC-62 76.6 µM

O=C(c1ccco1)N(Cc1cccnc1)C(=S)N(Cc1cccnc1)C(=O)c1ccco1
inactive: 786-0 3.06 µM | ACHN 17 µM | CCRF-CEM 2.74 µM | COLO 205 4.02 µM | HL-60 15.8 µM | LOX IMVI 5.05 µM | Malme-3M 16.7 µM | NCI-H226 19.5 µM | NCI/ADR-RES 34.2 µM | OVCAR-4 20.4 µM | OVCAR-5 23.7 µM | OVCAR-8 19.4 µM | RXF 393 28.7 µM | SF-268 18.7 µM | SF-539 11.1 µM | SK-MEL-2 12.5 µM | SK-OV-3 33.6 µM | SR 5.28 µM | UACC-257 14 µM | UACC-62 15.2 µM

O=C1C=C(NCCc2cc(Br)c(O)c(Br)c2)C(=O)c2[nH]cnc21
inactive: 786-0 > 100 µM | ACHN 42.9 µM | CCRF-CEM 2.28 µM | COLO 205 24.7 µM | HL-60 > 10 µM | LOX IMVI 21.5 µM | Malme-3M 15 µM | NCI-H226 23 µM | NCI/ADR-RES > 100 µM | OVCAR-4 19.1 µM | OVCAR-5 29.9 µM | OVCAR-8 38.7 µM | RXF 393 19.5 µM | SF-268 49 µM | SF-539 22.4 µM | SK-MEL-2 23.4 µM | SK-OV-3 41.2 µM | SR 32.4 µM | UACC-257 5.6 µM | UACC-62 19.5 µM

O=C(O)Cc1ccc(Oc2nc3ccccc3nc2-c2cccs2)cc1
inactive: 786-0 80 µM | ACHN 56.6 µM | CCRF-CEM 49.3 µM | COLO 205 31 µM | HL-60 55.8 µM | LOX IMVI 40.6 µM | Malme-3M > 100 µM | NCI-H226 52.4 µM | NCI/ADR-RES 60.5 µM | OVCAR-4 51.1 µM | OVCAR-5 62.7 µM | OVCAR-8 71.9 µM | RXF 393 17.4 µM | SF-268 66.4 µM | SF-539 79.4 µM | SK-MEL-2 84.1 µM | SK-OV-3 > 100 µM | SR 38.8 µM | UACC-257 > 100 µM | UACC-62 58.1 µM

O=C(NC1CCN(Cc2ccccc2)CC1)c1ccccc1I
inactive: 786-0 26.1 µM | ACHN 49.3 µM | CCRF-CEM 24.3 µM | COLO 205 18.9 µM | HL-60 38.9 µM | LOX IMVI 17.5 µM | Malme-3M 17.5 µM | NCI-H226 25.8 µM | NCI/ADR-RES 25.7 µM | OVCAR-4 86.3 µM | OVCAR-5 22.5 µM | OVCAR-8 39.8 µM | RXF 393 43.9 µM | SF-268 39.3 µM | SF-539 23.2 µM | SK-MEL-2 23.4 µM | SK-OV-3 22.4 µM | SR 25.6 µM | UACC-257 18.1 µM | UACC-62 18.5 µM

CC(C)[C@H](NC(=O)[C@H](C(C)C)N(Cc1ccccc1)Cc1ccccc1)C(=O)N(C)[C@H](C(=O)N1CCC[C@H]1C(=O)N(C)[C@H](C)C(=O)NCc1ccc(Cl)cc1)C(C)C (Bn2Val-V[NMeV]P[dNMeA]-{NH(4-Cl-benzyl)})
inactive: 786-0 3.26 µM | ACHN 2.98 µM | CCRF-CEM 2.42 µM | COLO 205 2.09 µM | HL-60 1.77 µM | LOX IMVI 1.85 µM | Malme-3M 10.3 µM | NCI-H226 3.72 µM | NCI/ADR-RES 3.32 µM | OVCAR-4 3.96 µM | OVCAR-5 4.9 µM | OVCAR-8 4.22 µM | RXF 393 1.53 µM | SF-268 2.98 µM | SF-539 3.88 µM | SK-MEL-2 1.62 µM | SK-OV-3 16.2 µM | SR 3.85 µM | UACC-257 4.78 µM | UACC-62 3.32 µM

c1ccc([C@H]2CN3CCSC3=N2)cc1 [LEVAMISOLE HYDROCHLORIDE]
inactive: 786-0 > 100 µM | ACHN > 100 µM | CCRF-CEM > 100 µM | COLO 205 > 100 µM | HL-60 > 100 µM | LOX IMVI > 100 µM | Malme-3M > 100 µM | NCI-H226 > 100 µM | NCI/ADR-RES > 100 µM | OVCAR-4 > 100 µM | OVCAR-5 > 100 µM | OVCAR-8 > 100 µM | RXF 393 > 100 µM | SF-268 > 100 µM | SF-539 > 100 µM | SK-MEL-2 > 100 µM | SK-OV-3 > 100 µM | SR > 100 µM | UACC-257 > 100 µM | UACC-62 > 100 µM
